Source: US6723702B2, “Use of relaxin treat diseases related to vasoconstriction” (RAS Medical, Inc., priority 2000, dated 2004)

Experiments:
intact, female rats = test: Chronic infusion of purified porcine RLX or rhRLX: MAP and renal function in conscious rats; assay type: in vivo, rat; details: chronic infusion 4 μg/hour
Text: Long-Evans female rats aged 10-14 weeks were purchased from Harlan Sprague-Dawley (Frederick, Md.). They were fed PROLAB RMH 2000 diet containing 0.48% sodium (PME Feeds Inc., St. Louis, Mo.) and provided water ad libitum. To prepare the rats for experimental procedures, they were trained for several hours in a Plexiglas restraining cage (Braintree Scientific Co., Braintree, Mass.) on at least five different occasions before surgical intervention. These cages afforded sufficient space for grooming of the face and front paws while preventing the rat from turning around. Thus, accurate timed-urine collections and blood samplings were made possible from the chronically implanted bladder and vascular catheters, respectively. Rats failing to habituate to the cage were eliminated from the study (<1%). All animal procedures were approved by the Institutional Animal Care and Use Committee of the Magee-Womens Research Institute.
The details of the surgical procedures have been previously described. See, e.g., Conrad (1984) Kidney Int. 26:24-29; and Danielson and Conrad (1995) J. Clin. Invest. 96:482-490. […] The bladder catheter, a silastic-covered stainless steel cannula, was sewn into the urinary bladder with a purse-string suture and exteriorized through the ventral abdominal wall. This catheter was then plugged allowing the animal to urinate through the urethra while in her home cage. In the ovariectomized and sham ovariectomized animals, the ovaries were first ligated and then excised, or briefly manipulated, respectively, via a small incision made in the lateral abdominal wall immediately after the insertion of vascular and bladder catheters. All surgeries were conducted using aseptic technique. At least a 7-day recovery period was allowed before experimentation.
For chronic infusion of relaxin, an osmotic minipump was inserted subcutaneously (s.c.) in the back of the animal under ether anesthesia. After shaving and cleaning the skin with alcohol and betadine, a small incision was made and the minipump containing either recombinant human relaxin (rhRLX), purified porcine relaxin (RLX), or vehicle was inserted. Then the incision was closed with surgical staples. The model 2001 and 2ML1 osmotic minipumps (Alza Co., Palo Alto, Calif.) were used for the purified porcine RLX and rhRLX, respectively.
At the beginning of each experiment, immediately after opening the arterial catheter and before infusion of fluids, 100 μl of blood was collected into a heparinized tube. […] The hematocrit was also routinely determined on these midpoint blood samples. […] MAP, GFR, ERPF, and ERVR were assessed on days 2 and 5 of the infusion, and 5-12 days after depletion of the 7-day minipump. […] Circulating relaxin concentrations of 20-40 ng/mL have been measured in rats of 12-14 gestational days. […]

conscious rats = test: Acute infusion of ANG II during chronic infusion of purified porcine RLX; assay type: in vivo, rat; details: for ERPF / ERVR / GFR / MAP: RLX 4 μg/h s.c. day 5
Protocol: At least 7 days after the implantation of vascular and bladder catheters, osmotic minipumps containing either porcine RLX (4 μg/hour) or vehicle (Ringer's solution) were implanted in intact, female rats (n=7 and 6 rats, respectively). Renal function and MAP were measured on day 5 of relaxin infusion (three 30-minute urine and midpoint blood collections). Next, an infusion of L-NAME (2 μg/minute, a substrate competitive inhibitor of NO synthase) was administered intravenously (i.v.) by infusion pump (Model 200, KD Scientific, Boston, Mass.). Four 1-hour urine collections with midpoint blood samples were collected for the assessment of GFR, ERPF, and ERVR during the L-NAME administration. Identical procedures were performed on additional animals chronically administered porcine RLX (n=5) or vehicle (n=5), except that ANG II (3 ng/minute) was infused rather than L-NAME. Finally, another four, age-matched control rats were administered Ringer's solution instead of either L-NAME or ANG II on day 5 of porcine RLX infusion.
To minimize the possibility that the convergence of renal function in the relaxin and vehicle infused rats elicited by L-NAME was merely a consequence of nonspecific renal vasoconstriction, the experimental paradigm was repeated using another vasoconstrictor, ANG II. Values are provided as mean±SEM. Relaxin, RLX; Angiotensin II, ANG II. ANG II was infused at 3 ng/min i.v., and RLX at 4 μg/h by osmotic minipump s.c. There were five rats each in the RLX and vehicle groups. *p<0.05 vs baseline, Hp<0.05 RLX vs vehicle.

[1] = days 2 and 5, rhRLX significant only at day 5

Q: For “Porcine RLX: lyophilized, purified porcine relaxin (Sherwood and O'Byrne 1974), dissolved in Ringer's solution”, which “effect on MAP” value (intact, female rats; days 2 and 5 (FIG. 1A)) is on record?
A: did not significantly change

Q: And the “effect on ERPF” value (intact, female rats; [1])?
A: marked increase

Q: What about the “effect on ERVR” value (intact, female rats; [1]) of the same substance?
A: reciprocal reduction

Q: And the “effect on GFR” value (intact, female rats; [1])?
A: marked increase

Q: And the ERPF (conscious rats; ANG II 3 ng/min i.v., 60 min)?
A: 8926

Q: What about the ERVR (conscious rats; ANG II 3 ng/min i.v., 60 min) of the same substance?
A: 8.88

Q: What about the GFR (conscious rats; ANG II 3 ng/min i.v., 60 min) of the same substance?
A: 2980

Q: And the MAP (conscious rats; ANG II 3 ng/min i.v., 60 min)?
A: 130

Q: What about the ERPF (conscious rats; ANG II 3 ng/min i.v., 120 min) of the same substance?
A: 9646

Q: And the ERVR (conscious rats; ANG II 3 ng/min i.v., 120 min)?
A: 9.24

Q: And the GFR (conscious rats; ANG II 3 ng/min i.v., 120 min)?
A: 2653

Q: What about the MAP (conscious rats; ANG II 3 ng/min i.v., 120 min) of the same substance?
A: 142

Q: And the ERPF (conscious rats; ANG II 3 ng/min i.v., 180 min)?
A: 7738

Q: And the ERVR (conscious rats; ANG II 3 ng/min i.v., 180 min)?
A: 11.52

Q: And the GFR (conscious rats; ANG II 3 ng/min i.v., 180 min)?
A: 2578

Q: And the MAP (conscious rats; ANG II 3 ng/min i.v., 180 min)?
A: 143

Q: What about the ERPF (conscious rats; ANG II 3 ng/min i.v., 240 min) of the same substance?
A: 7698

Q: And the ERVR (conscious rats; ANG II 3 ng/min i.v., 240 min)?
A: 11.84

Q: What about the GFR (conscious rats; ANG II 3 ng/min i.v., 240 min) of the same substance?
A: 2763

Q: What about the MAP (conscious rats; ANG II 3 ng/min i.v., 240 min) of the same substance?
A: 146

Q: And the ERPF (conscious rats; Baseline before ANG II)?
A: 10364

Q: What about the ERVR (conscious rats; Baseline before ANG II) of the same substance?
A: 6.23

Q: And the GFR (conscious rats; Baseline before ANG II)?
A: 2929

Q: What about the MAP (conscious rats; Baseline before ANG II) of the same substance?
A: 111

Q: And the “percent increase in MAP and reduction in GFR elicited by ANG II” value (conscious rats; RLX treated vs vehicle infused rats)?
A: comparable

Q: And the “percent increase in ERVR and reduction in ERPF elicited by ANG II” value (conscious rats; chronic relaxin vs vehicle)?
A: markedly attenuated
